Results reported in publication PMC7159882, “Polyunsaturated fatty acid analogues differentially affect cardiac NaV, CaV, and KV channels through unique mechanisms” (eLife, 2020).

Tests used:
Format in all cases: cell-based
Kv7.1/KCNE1 = target: T1, Kv7.1/KCNE1 (Homo sapiens, UniProt P51787); experiment: Two-electrode voltage clamp of Kv7.1/KCNE1 expressed in Xenopus oocytes; set-up: Fitted slope factor of conductance vs voltage relationship: unit of the concentration uncertain; details: for IKs I/I0: relative current at 0 mV
T1 construct: cRNA encoding Kv7.1 (UniProt: P51787), KCNE1 (UniProt: P15382.1); expressed in transfected cells; host or cells: Xenopus laevis oocytes (cRNA injection, Kv7.1:KCNE1 3:1 by weight)
Method: (§1) Molecular Biology cRNA encoding Kv7.1 (UniProt: P51787), KCNE1 (UniProt: P15382.1), Nav1.5 (UniProt: Q14524.1), Nav β1 (UniProt: […]), Nav β3 (UniProt: […]), Cav1.2 (GenBank: CAA84346), Cav β3 (Uniprot: P54286), Cav β2 (Uniprot: P54288), and Cav α2δ (Uniprot: P13806) were transcribed using the mMessage mMachine T7 kit (Ambion). 50 ng of cRNA was injected into defolliculated Xenopus laevis oocytes (Ecocyte, Austin, TX): For Kv7.1/KCNE1 channel expression, we injected a 3:1, weight:weight (Kv7.1:KCNE1) cRNA ratio. For Nav1.5 channel expression, we injected a 2:1, weight:weight (Nav1.5:β1) cRNA ratio. For Cav1.2 channel expression, we injected a 2:1:1, weight:weight (Cav1.2:β3:α2δ) cRNA ratio. The exact stoichiometry for channel macromolecular complexes, including α -subunits and auxiliary subunits is not clear for many ion channels. For example, there have been multiple reported stoichiometries for Kv7.1:KCNE1 determined in heterologous expression systems with some groups reporting flexible stoichiometry of 4 Kv7.1: 1–4 KCNE1 and others reporting a fixed stoichiometry of 4 Kv7.1: 2 KCNE1 ([Murray et al., 2016]; [Nakajo et al., 2010]). The ratios of cRNA of α- and auxiliary subunits that we injected in Xenopus laevis oocytes are such that all α-subunits are assumed to be in complex with auxiliary subunits. This allows a more homogenous population of ion channels with auxiliary subunits. One caveat to expressing ion channels as macromolecular complexes is that there are many other auxiliary subunits that could associate with the channel α -subunit that are present in cardiomyocytes and have the potential to alter PUFA-induced effects, but that are not being co-expressed in our experiments. In this work, we are co-expressing some of the auxiliary subunits that have been primarily reported to associate with their respective α -subunits in cardiomyocytes. Following cRNA injection, cells were incubated for 72–96 hr in standard ND96 solution (96 mM NaCl, 2 mM KCl, 1 mM MgCl2, 1.8 mM CaCl2, 5 mM HEPES; pH = 7.5) containing 1 mM pyruvate at 16°C prior to electrophysiological recordings.
Xenopus laevis oocytes were recorded in the two-electrode voltage clamp (TEVC) configuration. Recording pipettes were filled with 3 M KCl. The recording chamber was filled with ND96 (96 mM NaCl, 2 mM KCl, 1 mM MgCl2, 1.8 mM CaCl2, 5 mM HEPES; pH 7.5). For Cav1.2/β3/α2δ channel recordings, Xenopus oocytes were injected with 50 nl of 100 mM EGTA and incubated at 10°C for 30 min prior to electrophysiological recordings in order to sequester cytosolic calcium. In addition, Cav1.2/β3/α2δ channel recordings were done in Ca^2+-free solutions, using Ba^2+ as the charge carrier, to prevent calcium-dependent inactivation of Cav1.2/β3/α2δ channels. Calcium-dependent inactivation was not studied in this work, due to the presence of large calcium-activated chloride currents present in Xenopus laevis oocytes. PUFAs were obtained from Cayman Chemical (Ann Arbor, MI.) or synthesized in house (Linköping, Sweden) through methods previously described ([Bohannon et al., 2020]) and kept at −20 °C as 100 mM stock solutions in ethanol. […] PUFAs were perfused into the recording chamber using the Rainin Dynamax Peristaltic Pump (Model RP-1) (Rainin Instrument Co., Oakland, CA. USA).
Electrophysiological recordings were obtained using Clampex 10.3 software (Axon, pClamp, Molecular Devices). To measure Kv7.1/KCNE1 currents we apply PUFAs as the membrane potential is stepped every 30 s from −80 mV to 0 mV for 5 s before stepping to −40 mV and back to −80 mV to ensure that the PUFA effects on the current at 0 mV reached steady state. A voltage-step protocol was used to measure the current vs. voltage (I-V) relationship before PUFA application and after the PUFA effects had reached steady state for each concentration of PUFA. Cells were held at −80 mV followed by a hyperpolarizing prepulse to −140 mV. […]

Cav1.2/β3/α2δ = target: T2, Cav1.2/β3/α2δ (Homo sapiens, UniProt Q13936); experiment: Two-electrode voltage clamp of Cav1.2/β3/α2δ expressed in Xenopus oocytes (Ba2+ as charge carrier); details: for ICa I/I0: relative current at 0 mV
T2 construct: expressed in transfected cells; host or cells: Xenopus laevis oocytes (cRNA injection, Cav1.2:β3:α2δ 2:1:1 by weight)
Method: as §1
(§2) Xenopus laevis oocytes were recorded in the two-electrode voltage clamp (TEVC) configuration. Recording pipettes were filled with 3 M KCl. The recording chamber was filled with ND96 (96 mM NaCl, 2 mM KCl, 1 mM MgCl2, 1.8 mM CaCl2, 5 mM HEPES; pH 7.5). For Cav1.2/β3/α2δ channel recordings, Xenopus oocytes were injected with 50 nl of 100 mM EGTA and incubated at 10°C for 30 min prior to electrophysiological recordings in order to sequester cytosolic calcium. In addition, Cav1.2/β3/α2δ channel recordings were done in Ca^2+-free solutions, using Ba^2+ as the charge carrier, to prevent calcium-dependent inactivation of Cav1.2/β3/α2δ channels. Calcium-dependent inactivation was not studied in this work, due to the presence of large calcium-activated chloride currents present in Xenopus laevis oocytes. PUFAs were obtained from Cayman Chemical (Ann Arbor, MI.) or synthesized in house (Linköping, Sweden) through methods previously described ([Bohannon et al., 2020]) and kept at −20 °C as 100 mM stock solutions in ethanol. Serial dilutions of the different PUFAs were prepared from stocks to make 0.2 μM, 0.7 μM, 2 μM, 7 μM, and 20 μM concentrations in ND96 solutions (pH = 7.5). PUFAs were perfused into the recording chamber using the Rainin Dynamax Peristaltic Pump (Model RP-1) (Rainin Instrument Co., Oakland, CA. USA).
(§3) Electrophysiological recordings were obtained using Clampex 10.3 software (Axon, pClamp, Molecular Devices). To measure Kv7.1/KCNE1 currents we apply PUFAs as the membrane potential is stepped every 30 s from −80 mV to 0 mV for 5 s before stepping to −40 mV and back to −80 mV to ensure that the PUFA effects on the current at 0 mV reached steady state. A voltage-step protocol was used to measure the current vs. voltage (I-V) relationship before PUFA application and after the PUFA effects had reached steady state for each concentration of PUFA. […]

Nav1.5/β1 = target: T3, Nav1.5/β1 (Homo sapiens, UniProt Q14524); experiment: Two-electrode voltage clamp of Nav1.5/β1 expressed in Xenopus oocytes; details: for INa I/I0: relative current at 0 mV
T3 construct: Nav1.5 (UniProt: Q14524.1); expressed in transfected cells; host or cells: Xenopus laevis oocytes (cRNA injection, Nav1.5:β1 2:1 by weight)
T3 sequence (Q14524 whole entry): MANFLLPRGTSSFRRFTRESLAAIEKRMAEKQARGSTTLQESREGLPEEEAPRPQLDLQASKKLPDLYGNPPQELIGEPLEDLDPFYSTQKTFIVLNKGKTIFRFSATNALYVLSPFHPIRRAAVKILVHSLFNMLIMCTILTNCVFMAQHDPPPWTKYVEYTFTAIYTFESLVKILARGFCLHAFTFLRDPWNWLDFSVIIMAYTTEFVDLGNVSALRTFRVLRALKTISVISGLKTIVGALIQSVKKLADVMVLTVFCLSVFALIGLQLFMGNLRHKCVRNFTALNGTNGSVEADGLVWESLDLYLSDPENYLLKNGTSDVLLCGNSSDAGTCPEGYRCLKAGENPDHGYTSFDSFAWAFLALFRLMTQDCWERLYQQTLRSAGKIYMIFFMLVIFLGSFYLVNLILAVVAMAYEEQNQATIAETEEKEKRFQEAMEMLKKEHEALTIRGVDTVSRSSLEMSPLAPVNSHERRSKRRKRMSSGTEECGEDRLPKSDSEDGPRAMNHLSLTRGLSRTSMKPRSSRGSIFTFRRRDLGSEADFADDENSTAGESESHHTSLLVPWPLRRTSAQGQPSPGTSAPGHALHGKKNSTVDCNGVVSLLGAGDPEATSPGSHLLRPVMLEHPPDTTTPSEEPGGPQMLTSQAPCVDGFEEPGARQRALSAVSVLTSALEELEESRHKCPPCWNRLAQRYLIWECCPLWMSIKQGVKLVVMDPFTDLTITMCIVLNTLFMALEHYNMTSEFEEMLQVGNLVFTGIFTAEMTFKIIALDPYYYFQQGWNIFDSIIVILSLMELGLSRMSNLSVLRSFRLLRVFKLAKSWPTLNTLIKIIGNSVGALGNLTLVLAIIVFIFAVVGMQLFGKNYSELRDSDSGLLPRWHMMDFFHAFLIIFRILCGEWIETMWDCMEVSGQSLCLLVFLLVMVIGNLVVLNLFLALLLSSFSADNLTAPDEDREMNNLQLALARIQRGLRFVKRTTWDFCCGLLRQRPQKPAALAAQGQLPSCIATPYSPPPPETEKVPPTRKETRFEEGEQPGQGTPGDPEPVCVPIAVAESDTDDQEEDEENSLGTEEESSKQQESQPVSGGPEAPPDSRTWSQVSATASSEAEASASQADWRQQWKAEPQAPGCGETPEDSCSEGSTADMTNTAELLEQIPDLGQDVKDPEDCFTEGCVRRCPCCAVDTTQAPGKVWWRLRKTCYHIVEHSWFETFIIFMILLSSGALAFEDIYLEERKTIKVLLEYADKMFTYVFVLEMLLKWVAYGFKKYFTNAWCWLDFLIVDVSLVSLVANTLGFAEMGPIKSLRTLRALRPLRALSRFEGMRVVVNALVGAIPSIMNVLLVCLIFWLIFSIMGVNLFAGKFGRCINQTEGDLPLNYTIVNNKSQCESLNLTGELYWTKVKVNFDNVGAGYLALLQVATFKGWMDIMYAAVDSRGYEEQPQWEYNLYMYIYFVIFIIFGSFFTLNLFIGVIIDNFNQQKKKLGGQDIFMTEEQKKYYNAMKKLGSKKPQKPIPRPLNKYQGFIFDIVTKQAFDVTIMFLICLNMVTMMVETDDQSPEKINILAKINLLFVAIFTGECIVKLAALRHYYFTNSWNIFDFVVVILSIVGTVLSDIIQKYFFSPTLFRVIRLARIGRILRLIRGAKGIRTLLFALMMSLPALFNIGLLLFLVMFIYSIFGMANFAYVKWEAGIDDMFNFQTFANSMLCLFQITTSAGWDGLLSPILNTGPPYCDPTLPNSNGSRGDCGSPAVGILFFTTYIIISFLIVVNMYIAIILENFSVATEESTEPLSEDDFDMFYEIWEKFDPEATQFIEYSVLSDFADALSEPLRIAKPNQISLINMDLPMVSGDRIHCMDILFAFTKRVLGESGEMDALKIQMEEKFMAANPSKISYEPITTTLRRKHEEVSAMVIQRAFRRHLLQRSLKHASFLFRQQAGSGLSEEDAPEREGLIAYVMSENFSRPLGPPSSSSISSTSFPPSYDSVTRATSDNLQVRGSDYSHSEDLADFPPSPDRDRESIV
T3 sequence (Q07699 19-218 partner): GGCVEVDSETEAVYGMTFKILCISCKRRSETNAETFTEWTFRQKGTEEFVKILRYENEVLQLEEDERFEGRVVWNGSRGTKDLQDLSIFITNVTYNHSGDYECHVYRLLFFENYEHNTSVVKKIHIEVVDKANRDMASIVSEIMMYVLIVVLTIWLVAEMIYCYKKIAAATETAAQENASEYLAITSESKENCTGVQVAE
Method: as §1, §2, §3

Structure (SMILES): CC/C=C\C/C=C\C/C=C\C/C=C\C/C=C\C/C=C\CCC(=O)NCCS(=O)(=O)O [DHA-taurine]
- Fitted slope factor of conductance vs voltage relationship (Kv7.1/KCNE1; 0.2 μM): 18.7 ± 1.1 mV
- Gmax/Gmax0 (Kv7.1/KCNE1; 0.2 μM): 1.1 ± 0.04
- ΔV0.5 (voltage dependence of activation) (Kv7.1/KCNE1; 0.2 μM): -1.5 ± 0.4 mV
- IKs I/I0 (Kv7.1/KCNE1; 0.2 μM): 1.1 ± 0.03
- Fitted slope factor of conductance vs voltage relationship (Kv7.1/KCNE1; 0.7 μM): 18.6 ± 1.2 mV
- Gmax/Gmax0 (Kv7.1/KCNE1; 0.7 μM): 1.3 ± 0.1
- ΔV0.5 (voltage dependence of activation) (Kv7.1/KCNE1; 0.7 μM): -5.0 ± 1.7 mV
- IKs I/I0 (Kv7.1/KCNE1; 0.7 μM): 1.4 ± 0.08
- Fitted slope factor of conductance vs voltage relationship (Kv7.1/KCNE1; 2 μM): 18.6 ± 1.3 mV
- Gmax/Gmax0 (Kv7.1/KCNE1; 2 μM): 1.6 ± 0.2
- ΔV0.5 (voltage dependence of activation) (Kv7.1/KCNE1; 2 μM): -17.5 ± 2.0 mV
- IKs I/I0 (Kv7.1/KCNE1; 2 μM): 2.9 ± 0.5
- Fitted slope factor of conductance vs voltage relationship (Kv7.1/KCNE1; 7 μM): 18.1 ± 1.2 mV
- Gmax/Gmax0 (Kv7.1/KCNE1; 7 μM): 1.7 ± 0.1
- ΔV0.5 (voltage dependence of activation) (Kv7.1/KCNE1; 7 μM): −45.3 ± 2.9 mV
- Gmax/Gmax0 (Kv7.1/KCNE1; 20 μM): 1.1 ± 0.9
- ΔV0.5 (voltage dependence of activation) (Kv7.1/KCNE1; 20 μM): -70.5 ± 6.0 mV
- IKs I/I0 (Kv7.1/KCNE1; 20 μM): 3.1 ± 0.4
- Gmax/Gmax0 (Cav1.2/β3/α2δ; 0.2 μM): 1.0 ± 0.05
- ΔV0.5 (voltage dependence of inactivation) (Cav1.2/β3/α2δ; 0.2 μM): 1.7 ± 0.7 mV
- ICa I/I0 (Cav1.2/β3/α2δ; 0.2 μM): 0.9 ± 0.04
- Gmax/Gmax0 (Cav1.2/β3/α2δ; 0.7 μM): 1.1 ± 0.1
- ΔV0.5 (voltage dependence of inactivation) (Cav1.2/β3/α2δ; 0.7 μM): 1.6 ± 0.8 mV
- ICa I/I0 (Cav1.2/β3/α2δ; 0.7 μM): 1.0 ± 0.03
- Gmax/Gmax0 (Cav1.2/β3/α2δ; 2 μM): 1.1 ± 0.07
- ΔV0.5 (voltage dependence of inactivation) (Cav1.2/β3/α2δ; 2 μM): 1.7 ± 1.0 mV
- ICa I/I0 (Cav1.2/β3/α2δ; 2 μM): 1.0 ± 0.03
- Gmax/Gmax0 (Cav1.2/β3/α2δ; 7 μM): 1.1 ± 0.1
- ΔV0.5 (voltage dependence of inactivation) (Cav1.2/β3/α2δ; 7 μM): 0.2 ± 0.8 mV
- Gmax/Gmax0 (Cav1.2/β3/α2δ; 20 μM): 0.8 ± 0.1
- ΔV0.5 (voltage dependence of inactivation) (Cav1.2/β3/α2δ; 20 μM): -3.8 ± 0.9 mV
- ICa I/I0 (Cav1.2/β3/α2δ; 20 μM): 0.7 ± 0.1
- Gmax/Gmax0 (Nav1.5/β1; 0.2 μM): 1.0 ± 0.01
- ΔV0.5 (voltage dependence of inactivation) (Nav1.5/β1; 0.2 μM): -0.5 ± 0.3 mV
- INa I/I0 (Nav1.5/β1; 0.2 μM): 1.0 ± 0.03
- Gmax/Gmax0 (Nav1.5/β1; 0.7 μM): 0.9 ± 0.01
- ΔV0.5 (voltage dependence of inactivation) (Nav1.5/β1; 0.7 μM): -2.6 ± 0.5 mV
- INa I/I0 (Nav1.5/β1; 0.7 μM): 1.0 ± 0.03
- Gmax/Gmax0 (Nav1.5/β1; 2 μM): 0.6 ± 0.03
- ΔV0.5 (voltage dependence of inactivation) (Nav1.5/β1; 2 μM): -9.4 ± 1.6 mV
- INa I/I0 (Nav1.5/β1; 2 μM): 0.7 ± 0.04
- Gmax/Gmax0 (Nav1.5/β1; 7 μM): 0.1 ± 0.01
- ΔV0.5 (voltage dependence of inactivation) (Nav1.5/β1; 7 μM): −28.5 ± 0.6 mV
- Gmax/Gmax0 (Nav1.5/β1; 20 μM): 0.04 ± 0.01
- ΔV0.5 (voltage dependence of inactivation) (Nav1.5/β1; 20 μM): -63.2 ± 10.9 mV
- INa I/I0 (Nav1.5/β1; 20 μM): 0.1 ± 0.03
